“And” between values parts separate entries of the source, which are not always exact repeats. Equal entries are not always repeated.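 Tested at 5 concentrations; 48 h exposure; 96-well plates; endpoints linearly interpolated, else capped at highest concentration. GI50: concentration for 50% inhibition of growth. The concentration for full growth arrest is given as TGI.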

Common to all, as to assay: NCI anticancer screen, dose series, 48 h
For test [1], the system named is ACHN renal.
The subject of test [2] is DU-145 prostate.
Test [3] has as its system KM12 colon.
In test [4] the test system is LOX IMVI melanoma.
For test [5], the system named is M14 melanoma.
In test [6] the test system is OVCAR-8 ovarian.
The test system of test [7] is SK-MEL-2 melanoma.
The test system of test [8] is SNB-19 CNS.
Test [9] has as its system UACC-257 melanoma.
Test [10] relates to UO-31 renal.

As to `CN1C(=O)N[C@H]2[C@@H]3NC(=O)c4ccc(Br)n4[C@@H]3C[C@]21O`, the GI50 was 0.187 µM in test [1]; 0.121 µM in test [2]; 0.191 µM in test [3]; 0.369 µM in test [4]; 0.0454 µM in [5]; 0.259 µM in test [6]. Further, the GI50 in test [7] is 0.0568 µM; in [8] it was 0.0351 µM; in test [9] it was 0.108 µM; in test [10], 1.81 µM. The TGI is 2.93 µM in test [1]; 2.8 µM in [2]; 5.47 µM in test [3]; 3.37 µM in test [4]; 0.236 µM in test [5]; 1.93 µM in [6]. The TGI in [7] came to 0.194 µM; in test [8], 0.576 µM; in [9] it was 1.52 µM; in test [10], 6.75 µM.

For the molecule `CC[N+]1(C)CCC(O)(c2ccc(OC)cc2)C(C(=O)c2ccc(OC)cc2)C1` (stereo not given), the TGI in [1] was 27.2 µM; in test [2], 32.7 µM; in [3], 31.2 µM; in [4], 34.3 µM; in [5] it was 21.3 µM; in [6], 59.4 µM. The TGI in test [7] is 34.3 µM; in test [8] it was 47.7 µM; in [9], 35.4 µM; in [10], 33.6 µM.

As to `C=C1CCC2C(C)(COC(=O)CC)C(OC(=O)CC)CCC2(C)C1C/C=C1/C(=O)OCC1OC(=O)CC` (stereo not given), the GI50 in [1] was 1.74 µM; in [2], 1.82 µM; in [3], 1.86 µM; in test [4], 1.51 µM; in test [5], 1.94 µM; in test [6], 0.634 µM. Moreover, the GI50 in [7] is 1.44 µM; in test [8], 3.74 µM; in test [9], 1.33 µM; in test [10], 1.88 µM. Besides, the TGI in test [1] came to 3.24 µM; in [2], 3.25 µM; in test [3], 3.75 µM; in test [4], 3.01 µM; in test [5], 4.66 µM; in [6], 2.13 µM. Also, the TGI in [7] worked out at 3.02 µM; in [8], 14.7 µM; in test [9] it was 2.7 µM; in test [10], 3.38 µM.

On to `COc1ccc(-c2c3c(n(C4OC(COC(C)=O)C(OC(C)=O)C(OC(C)=O)C4OC(C)=O)c(=S)c2C#N)CC(C)(C)CC3=O)cc1` (stereo not given), for which the GI50 in test [1] is 46.2 µM and > 100 µM; in test [2], 46.8 µM and > 100 µM; in test [5] it was 49.7 µM and > 100 µM; in [6] it was 22.1 µM and > 100 µM; in [7], 26.3 µM and > 100 µM; in test [9], 27.9 µM and > 100 µM. For the same molecule, the TGI is > 100 µM in test [1]; > 100 µM in test [2]; > 100 µM in [3]; 97.5 µM and 77.2 µM in test [4]; > 100 µM in [5]; 75.4 µM and > 100 µM in test [6]. Besides, the TGI was 76.4 µM and > 100 µM in [7]; > 100 µM in test [8]; > 100 µM in test [9]; > 100 µM in test [10].

Take `CN(Cc1cc(Cl)cc(Cl)c1)CC(C(=O)c1ccccc1)c1ccccc1` (stereo not given): the TGI is 2.16 µM in [1]; 20.9 µM in test [2]; 17.5 µM in test [3]; 5.91 µM in test [4]; 13.5 µM in test [5]; 21.2 µM in [6]. Moreover, the TGI in test [7] is 29.7 µM; in [8], > 53 µM; in test [9] it was 14.9 µM; in test [10] it was 19.9 µM.

On to `COc1nc(N)nc2c1ncn2C1OC(CO)C(O)C1O` (stereo not given), for which the GI50 is 723 µM in test [1]; > 5000 µM in [2]; > 5000 µM in [3]; 3540 µM in test [4]; > 5000 µM in test [5]; > 5000 µM in test [6]. The GI50 is 2570 µM in test [7], > 5000 µM in test [8] and > 5000 µM in [10]. The TGI in [1], in [2], in test [3], in test [4], in test [5] and in [6] was > 5000 µM in each case. Further, the TGI in [7], in test [8], in [9] and in test [10] was > 5000 µM in each case.

On to `Cc1nc(N2CCC3(CC2)CO[C@@H](C)[C@H]3N)c(CO)nc1Sc1ccnc(N)c1Cl`, for which the GI50 in [1] was 4.81 µM; in test [2] it was 45.3 µM; in test [3], 2.21 µM; in test [4], 72.4 µM; in [5], > 100 µM; in test [6], 75.6 µM. In addition, the GI50 in [7] was > 100 µM; in [8], 14.8 µM; in test [9], > 90.4 µM; in test [10] it was 0.973 µM. Moreover, the TGI in [1], in [2], in test [3], in [4], in [5] and in [6] was > 100 µM in each case. Moreover, the TGI in test [7], in test [8], in test [9] and in test [10] was > 100 µM in each case.

Consider `O=C(/C=C/c1ccccc1)n1c(-c2ccc(Cl)cc2)nc2ccccc21`, for which the GI50 in [1] is 1.18 µM; in test [2] it was 1.8 µM; in [3], 1.44 µM; in test [4], 0.588 µM; in test [5] it was 1.91 µM; in test [6], 0.752 µM. Further, the GI50 in [7] is 2.1 µM; in test [8] it was 3.13 µM; in [9] it was 1.47 µM; in [10], 1.1 µM. In addition, the TGI in [1] came out at 10 µM; in [2], 4.93 µM; in test [3], 2.93 µM; in [4] it was 1.91 µM; in test [5], 5.05 µM; in test [6], 10.3 µM. For the same molecule, the TGI in test [7] came out at 4.35 µM; in test [8] it was 12.8 µM; in test [9] it was 3.42 µM; in [10], 3.55 µM.

For `CCOC(=O)CC1C(COC(=O)NC)OC(n2cnc3c(NC(=O)Nc4ccccc4)ncnc32)C1O[Si](C)(C)C(C)(C)C` (stereo not given), the GI50 is 5.92 µM in [1]; 5.21 µM in test [2]; 3.21 µM in test [3]; 7.78 µM in test [4]; 6.37 µM in test [5]; 10.3 µM in [6]. Further, the GI50 is 13.2 µM in test [7], 49.2 µM in test [8], 20.8 µM in test [9] and 5.7 µM in test [10]. Moreover, the TGI in [1] was > 100 µM; in test [2], 28.2 µM; in test [3] it was 10.7 µM; in test [4], 23 µM; in [5], 95.7 µM; in test [6], > 100 µM. Moreover, the TGI in test [7] was 57.3 µM; in test [8], > 100 µM; in [9], > 100 µM; in test [10], 55.4 µM.

In the case of `CC(C)(C)CC(C)(C)NCc1cc(C(C)(C)C)cc(CNC(C)(C)CC(C)(C)C)c1O`, the GI50 is 2.81 µM in [1]; 6.07 µM in test [2]; 3.32 µM in test [3]; 1.6 µM in [4]; 1.95 µM in test [5]; 3.25 µM in test [6]. The GI50 is 2.84 µM in [7], 5.24 µM in [8], 2.21 µM in test [9] and 1.92 µM in [10]. Also, the TGI in test [1] was found to be 10.8 µM; in test [2], 18.5 µM; in test [3], 11.2 µM; in [4] it was 3.1 µM; in test [5], 4.16 µM; in test [6], 12.4 µM. Also, the TGI in test [7] turned out to be 6.6 µM; in test [8] it was 17.8 µM; in test [9] it was 6.52 µM; in test [10] it was 9.91 µM.

For `O=Cc1ccc(-c2ccc(-c3nc4ccccc4o3)cc2)o1`, the GI50 was 21.1 µM in test [1]; 50.1 µM in [2]; 21 µM in test [3]; 23 µM in test [4]; 44.1 µM in [5]; 33.3 µM in test [6]. The GI50 was 66.4 µM in [7], > 100 µM in test [8], 92.3 µM in test [9] and 22.7 µM in test [10]. Moreover, the TGI in test [1] is 58.2 µM; in test [2], > 100 µM; in test [3] it was 53.4 µM; in [4], 60.2 µM; in [5] it was > 100 µM; in test [6] it was > 100 µM. Further, the TGI was > 100 µM in test [7], > 100 µM in [8], > 100 µM in [9] and 68.5 µM in test [10].

On to `Cc1cccc(C)c1NC(=O)Nc1ccc(S(N)(=O)=O)cc1`, for which the TGI in test [1], in [2], in test [3], in test [4], in [5] and in [6] was > 100 µM in each case. The TGI in test [7], in test [8], in [9] and in test [10] was > 100 µM each time.

`COc1ccccc1CNCCCN1C(=O)c2ccc3c4c(ccc(c24)C1=O)C(=O)N(CCCCNCCCN)C3=O`: the GI50 is 3.68 µM in test [1]; 1.59 µM in test [2]; 2.53 µM in test [3]; 0.654 µM in test [4]; 1.89 µM in [5]; 0.71 µM in [6]. The GI50 was 1.09 µM in test [7], 1.31 µM in [8], 0.698 µM in [9] and 3.5 µM in test [10]. Moreover, the TGI was found to be 17.3 µM in test [1]; 2.99 µM in [2]; 9.7 µM in test [3]; 1.69 µM in [4]; 3.5 µM in test [5]; 3.67 µM in [6]. Moreover, the TGI in test [7] was 3.09 µM; in [8], 2.72 µM; in test [9] it was 2.08 µM; in [10], 14.4 µM.

Consider `COc1ccc(OC)c2c1[nH]c(=O)c1c3ncccc3cn21`, for which the GI50 in test [1] was 2.03 µM; in test [2], 3.45 µM; in [3], 4.23 µM; in test [4] it was 1.8 µM; in test [5], 4.49 µM; in test [6] it was 2.53 µM. Besides, the GI50 in test [7] was 7.17 µM; in test [8], 5.6 µM; in [9] it was 5.05 µM; in test [10], 2.49 µM. In addition, the TGI is > 100 µM in test [1]; 14.7 µM in test [2]; > 100 µM in [3]; 4.29 µM in test [4]; > 100 µM in [5]; > 100 µM in [6]. Further, the TGI in [7], in test [8], in test [9] and in test [10] was > 100 µM each time.

As to `COc1cc(-c2nc(-c3nc4ccccc4[nH]3)cc3c2[nH]c2ccccc23)cc(OC)c1OC`, the GI50 is 4.86 µM in test [1]; 6.27 µM in test [2]; 3.67 µM in test [3]; 4.72 µM in test [4]; 4.18 µM in test [5]; 2.79 µM in test [6]. Also, the GI50 in test [7] was 3.58 µM; in test [8] it was 9.45 µM; in test [9], 3.57 µM; in [10], 3.62 µM. In addition, the TGI in test [1], in test [2], in test [3], in test [4], in test [5] and in test [6] was > 100 µM throughout. In addition, the TGI in [7], in [8], in test [9] and in test [10] was > 100 µM each time.

(Values after PubChem BioAssay (NCI).)
